In patent US9937139B2 (priority 2014, dated 2018):

Tests used:
[1] = test system: LLCPK cells conditionally expressing hLAT1; experiment: LAT1-specific in vitro cytotoxicity, modified clonigenic assay; format: cell-based; details: 3 μM test compound for 30 min, then 7-10 days proliferation; induced (LAT1+) vs non-induced
B16 melanoma cells = experiment: In vivo tumor growth suppression, B16 efficacy model; details: C57BL/6 mice, s.c. B16 melanoma, IP daily for 12 days; test compound 5 mg/kg and 10 mg/kg (dose of tabulated value not stated), melphalan 2.5 mg/kg

| SMILES | percent surviving cells in cells expressing LAT1 compared to cells not expressing LAT1 [1] | Tumor Growth (% Control) 5 days post-dosing (B16 melanoma cells) | Tumor Growth (% Control) End of dosing (B16 melanoma cells) |
| --- | --- | --- | --- |
| N[C@@H](Cc1ccc(N(CCCl)CCCl)cc1)C(=O)O [Melphalan, melphalan, reference compound] | about the same | 56 % Control | 33 % Control |
| Cc1c(N(CCCl)CCCl)cccc1C(C)(CN)CC(=O)O (centres unmarked) [Example 6, 4-Amino-3-[3-[bis(2-chloroethyl)amino]-2-methyl-phenyl]-3-methyl-butanoic acid] | about the same | – | – |
| Cc1cc(N(CCCl)CCCl)ccc1C(C)(CN)CC(=O)O (centres unmarked) [Example 7, 4-Amino-3-[4-[bis(2-chloroethyl)amino]-2-methyl-phenyl]-3-methyl-butanoic acid] | – | 50 % Control | 38 % Control |
| Cc1ccc(N(CCCl)CCCl)cc1C(C)(CN)CC(=O)O (centres unmarked) [Example 5, 4-Amino-3-[5-[bis(2-chloroethyl)amino]-2-methyl-phenyl]-3-methyl-butanoic acid] | – | 14 % Control | 13 % Control |
